Measurements published in patent US8552161B2, “Saponin compounds, methods of preparation thereof, use thereof and pharmaceutical compositions” (Uniwersytet W Bialymstoku, priority 2009, dated 2013).

How the values were obtained:
[1] = system: T-lymphoblastic leukemia cell line CEM; test: Calcein AM cytotoxicity assay, CEM; format: cell-based; conditions: 72 h; for dose-dependent antiproliferative activity, number of viable cells (FIG. 1): CEM, increasing concentrations, Calcein AM; for IC50: Calcein AM assay, means ± SD, three independent experiments in triplicate
Experimental: (§1) Stock solutions (10 mmol/l) of the tested compounds were prepared by dissolving relevant quantity of the substance in DMSO. […] Calcein AM was obtained from Molecular Probes (Invitrogen Corporation, CA, USA).
(§2) All cell lines were cultured in DMEM medium (Sigma, Mo., USA). Medium was supplemented with 10% heat-inactivated fetal bovine serum, 2 mmol/l L-glutamine and 1% penicillin-streptomycin. The cell lines were maintained under standard cell culture conditions at 37° C. and 5% CO2 in a humid environment. Cells were subcultured twice or three times a week using the standard trypsinization procedure.
(§3) All cell lines were cultured in DMEM medium (Sigma, Mo., USA) supplemented with 10% fetal calf serum, 2 mM glutamine, 100 U/ml penicillin and 100 μg/ml streptomycin, at 37° C. in a fully humidified atmosphere containing 5% CO2. Suspensions of these lines (ca. 1.0×10^5 cells/ml) were placed in 96-well microtitre plates and after 3 h of stabilization the tested compounds were added in serially diluted concentrations. Saponins were dissolved in dimethylsulfoxide (DMSO) before addition to cultures. Control cultures were treated with DMSO alone. The final concentration of DMSO in the reaction mixtures never exceeded 0.6%. Four-fold dilutions of the intended test concentration were added at time zero in 20 μl aliquots to the microtitre plate wells. Usually, each test compound was evaluated at six 4-fold dilutions and in routine testing; the highest well concentration was 50 μM, although this varied in a few cases, depending on the test compound. After 72 h of culture, the cells were incubated with Calcein AM solution (Molecular Probes) for 1 h. The fluorescence of viable cells was quantified using a Fluoroscan Ascent instrument (Microsystems).

[2] = system: breast carcinoma cell line MCF7; test: Calcein AM cytotoxicity assay, MCF7; format: cell-based, human; conditions: for IC50: Calcein AM assay, 72 h, means ± SD, three independent experiments in triplicate; for dose-dependent antiproliferative activity, number of viable cells (FIG. 1): MCF7, 72 h, increasing concentrations, Calcein AM
Experimental: as §1, §2, §3

[3] = system: malignant melanoma cell line G-361; test: Calcein AM cytotoxicity assay, G-361; format: cell-based, human; conditions: 72 h, means ± SD, three independent experiments in triplicate
Experimental: as §1, §2, §3

[4] = system: cervical carcinoma cell line HeLa; test: Calcein AM cytotoxicity assay, HeLa; format: cell-based; conditions: 72 h, means ± SD, three independent experiments in triplicate
Experimental: as §1, §2, §3

[5] = system: osteosarcoma cell line HOS; test: Calcein AM cytotoxicity assay, HOS; format: cell-based, human; conditions: 72 h, means ± SD, three independent experiments in triplicate
Experimental: (§4) Stock solutions (10 mmol/l) of the tested compounds were prepared by dissolving relevant quantity of the substance in DMSO. Dulbecco's modified Eagle's medium (DMEM, RPMI 1640, F-12 medium), fetal bovine serum (FBS), L-glutamine, penicillin, streptomycin were purchased from Sigma (MO, USA). Calcein AM was obtained from Molecular Probes (Invitrogen Corporation, CA, USA).
(§5) The screening cell lines (T-lymphoblastic leukaemia cell line CEM, breast carcinoma cell line MCF-7, cervical carcinoma cell line HeLa, human glioblastoma cell line T98, human malignant melanoma G-361, human osteogenic sarcoma cell line HOS, carcinomic human alveolar basal epithelial cells A549, human colon carcinoma cells HCT 116 and human fibroblasts BJ) were obtained from the American Type Culture Collection (Manassas, Va., USA). All cell lines were cultured in DMEM medium (Sigma, Mo., USA). Medium was supplemented with 10% heat-inactivated fetal bovine serum, 2 mmol/l L-glutamine and 1% penicillin-streptomycin. The cell lines were maintained under standard cell culture conditions at 37° C. and 5% CO2 in a humid environment. Cells were subcultured twice or three times a week using the standard trypsinization procedure.
(§6) Cytotoxic activities of the novel compounds, obtained according to this invention, were tested in vitro against following cancer cell lines: T-lymphoblastic leukemia cell line CEM; breast carcinoma cell line MCF7, lung carcinoma cell line A549, cervical carcinoma cell line HeLa, malignant melanoma cell line G-361, osteosarcoma cell line HOS, human glioblastoma cell line T98, human colon carcinoma cells HCT 116 and normal human fibroblasts BJ. […] Usually, each test compound was evaluated at six 4-fold dilutions and in routine testing; the highest well concentration was 50 μM, although this varied in a few cases, depending on the test compound. […] The fluorescence of viable cells was quantified using a Fluoroscan Ascent instrument (Microsystems). […]

[6] = system: lung carcinoma cell line A549; test: Calcein AM cytotoxicity assay, A549; format: cell-based, human; conditions: 72 h, means ± SD, three independent experiments in triplicate, read-out: IC50, A 549
Experimental: as §1, §2, §3

[7] = system: human glioblastoma cell line T98; test: Calcein AM cytotoxicity assay, T98; format: cell-based; conditions: 72 h, means ± SD, three independent experiments in triplicate
Experimental: as §4, §5
as §3, with “Cytotoxic activities of the novel compounds, obtained according to this invention, were tested in vitro against following cancer cell lines: T-lymphoblastic leukemia cell line CEM; breast carcinoma cell line MCF7, lung carcinoma cell line A549, cervical carcinoma cell line HeLa, malignant melanoma cell line G-361, osteosarcoma cell line HOS, human glioblastoma cell line T98, human colon carcinoma cells HCT 116 and normal human fibroblasts BJ. All” for “All”, “(Microsystems). The percentage of surviving cells in each well was calculated from the equation […]=(ODdrug exposed well/mean ODcontrol wells)×100%. The IC50 value, the drug concentration lethal to 50% of the tumour cells, was calculated from the obtained dose-response curves.” for “(Microsystems).”

[8] = system: human colon carcinoma cells HCT 116; test: Calcein AM cytotoxicity assay, HCT 116; format: cell-based; conditions: 72 h, means ± SD, three independent experiments in triplicate, read-out: IC50, HCT116
Experimental: as §4, §5, §6

[9] = system: normal human fibroblasts BJ; test: Calcein AM cytotoxicity assay, normal fibroblasts BJ; format: cell-based; conditions: 72 h, means ± SD, three independent experiments in triplicate
Experimental: as §1, §2, §3

[10] = system: leukemia HL-60 cancer cells; conditions: cited from earlier work
P388 = conditions: mice bearing P388, single administration of 0.01 mg/kg; cited from earlier work
[11] = system: human leukemia and pancreatic cancer cells; conditions: cited from earlier work

SMILES | dose-dependent antiproliferative activity, number of viable cells (FIG. 1) [1] | IC50 [1] [nM] | IC50 [2] [nM] | dose-dependent antiproliferative activity, number of viable cells (FIG. 1) [2] | IC50 [3] [nM] | IC50 [4] [nM] | IC50 [5] [nM] | IC50 [6] [nM] | IC50 [7] [nM] | IC50 [8] [nM] | IC50 [9] [nM] | cytotoxicity relative to clinically applied anticancer agents (mitomycin C, adriamycin, cisplatin, camptothecin, taxol) ([10]; HL-60) | cytotoxic activity, HL-60 ([10]; NCI tests) | prolongation of life span (P388) [%] | effect on mitochondria [11]
CCCCCCCCCCCCCC(=O)OC[C@@H](C)[C@@]1(O)[C@@H](O[C@@H]2OC[C@H](O)[C@H](O[C@@H]3OC[C@@H](O)[C@H](O)[C@H]3OC(=O)c3ccc(OC)cc3)[C@H]2OC(C)=O)C[C@H]2[C@@H]3CC=C4C[C@@H](O)CC[C@]4(C)[C@H]3CC[C@@]21C [Compound 9, (20R)-21-O-tetradecanoyl-20-methylpregn-5-ene-3β,16β,17α,21-tetraol 16-O-{2-O-(4-methoxybenzoyl)β-D-xylopyranosyl-(1-43)-2′-O-acetyl-α-L-arabinopyranoside}] | significantly reduce the number of living cells | 16 ± 5 | 48 ± 22 | significantly reduce the number of living cells | 30 ± 10 | 67 ± 2 | 2700 ± 600 | 720 ± 70 | 28 ± 1 | 2800 ± 400 | 83 ± 5 | – | – | – | –
CCCCCCCCCCCCCCCCCC(=O)OC[C@@H](C)[C@@]1(O)[C@@H](O[C@@H]2OC[C@H](O)[C@H](O[C@@H]3OC[C@@H](O)[C@H](O)[C@H]3OC(=O)c3ccc(OC)cc3)[C@H]2OC(C)=O)C[C@H]2[C@@H]3CC=C4C[C@@H](O)CC[C@]4(C)[C@H]3CC[C@@]21C [Compound 10, (20R)-21-O-Octadecanoyl-20-methylpregn-5-ene-3β,16β,17α,21-tetraol 16-O-{2-O-(4-methoxybenzoyl)-β-D-xylopyranosyl-(1→3)-2′-O-acetyl-α-L-arabinopyranoside}] | significantly reduce the number of living cells | 58 ± 1 | 195 ± 21 | significantly reduce the number of living cells | 300 ± 100 | 435 ± 64 | – | 550 ± 180 | 210 ± 50 | – | 80 ± 4 | – | – | – | –
CC(C)CCC(=O)[C@@H](C)[C@@]1(O)[C@@H](O)C[C@H]2[C@@H]3CC=C4C[C@@H](O)CC[C@]4(C)[C@H]3CC[C@@]21C [OSW-1 aglycone, reference compound] | – | > 50000 | > 50000 | – | > 50000 | > 50000 | > 50000 | > 50000 | > 50000 | > 50000 | > 50000 | – | – | – | –
COc1ccc(C(=O)O[C@H]2[C@H](O[C@@H]3[C@@H](OC(C)=O)[C@H](O[C@H]4C[C@H]5[C@@H]6CC=C7C[C@@H](O)CC[C@]7(C)[C@H]6CC[C@]5(C)[C@@]4(O)[C@H](C)C(=O)CCC(C)C)OC[C@@H]3O)OC[C@@H](O)[C@@H]2O)cc1 [OSW-1, reference compound] | – | 3 ± 0.03 | 54.4 ± 0.2 | – | 1000 ± 100 | 3.4 ± 0.3 | 8200 ± 400 | 27 ± 3 | 70 ± 6 | 8400 ± 500 | 0.2 | 10-100 times | nanomolar concentrations | 59 | damaged the mitochondrial membrane and cristae
